Key:
Conditions in all cases: 48 h
[1] = tested on: NOMO1; experiment: AUC of viability dose-response curve (% viability x log10 dose units); higher = less sensitive
Method in brief: (§1)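 Viability of medium-adapted leukemia cells was measured by CellTiter-Glo One luminescence after 48 h at 37°C with library compounds in DMSO. Doses were 11 threefold steps from 47 μM to 0.79 nM, in 1536-well plates at 500 or 1000 cells/well. Signals were normalised per plate to DMSO and cell-free wells and fitted with a four-parameter log-logistic model on log10 dose. Area under the curve was integrated by trapezoidal rule, with curves exceeding full viability scaled and failed quality-control curves removed.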

[2] = tested on: SEM cells; experiment: as above
Method in brief: as §1

[3] = tested on: P12-Ichikawa; experiment: as above
Method in brief: as §1

[4] = tested on: NOMO1; experiment: cell viability relative to DMSO control; higher = less cytotoxic
Method in brief: (§2)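 NOMO1, SEM and P12-Ichikawa leukemia cells spent at least four passages adapting to each medium before use. They were seeded at 500 cells/well (NOMO1, SEM) or 1000 cells/well (P12-Ichikawa) in 5 μl in 1536-well plates and pin-dosed with library compounds in DMSO at 11 threefold steps from 47 μM down to 0.79 nM. After 48 h at 37°C, CellTiter-Glo One luminescence was read. Viability is reported as a percentage of the DMSO wells on each plate, with cell-free wells as background.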

[5] = tested on: SEM cells; experiment: as above
Method in brief: as §2

[6] = tested on: P12-Ichikawa; experiment: as above
Method in brief: as §2

CCOC(=O)c1c(C)n(C)c2ccc(O)cc12
AUC of viability dose-response curve
Conditions	[1]	[2]	[3]
HPLM + 10% dialyzed FBS	468	447	456
RPMI 5 mM glucose + 10% FBS	455	462	436
RPMI 5 mM glucose + 10% dialyzed FBS	461	463	443

cell viability [%]
Conditions	[4]	[5]	[6]
HPLM + 10% dialyzed FBS, 0.000781 µM	–	99.8	122
HPLM + 10% dialyzed FBS, 0.00234 µM	–	95.8	124
HPLM + 10% dialyzed FBS, 0.00702 µM	–	97.6	124
HPLM + 10% dialyzed FBS, 0.0211 µM	–	96	123
HPLM + 10% dialyzed FBS, 0.0632 µM	–	95.6	128
HPLM + 10% dialyzed FBS, 0.19 µM	–	105	122
HPLM + 10% dialyzed FBS, 0.569 µM	–	97	127
HPLM + 10% dialyzed FBS, 1.71 µM	–	103	123
HPLM + 10% dialyzed FBS, 5.12 µM	–	107	107
HPLM + 10% dialyzed FBS, 15.4 µM	–	113	109
HPLM + 10% dialyzed FBS, 46.1 µM	–	104	90.3
RPMI 5 mM glucose + 10% FBS, 0.000781 µM	–	115	–
RPMI 5 mM glucose + 10% FBS, 0.00234 µM	–	121	–
RPMI 5 mM glucose + 10% FBS, 0.00702 µM	–	107	–
RPMI 5 mM glucose + 10% FBS, 0.0211 µM	–	110	–
RPMI 5 mM glucose + 10% FBS, 0.0632 µM	–	101	–
RPMI 5 mM glucose + 10% FBS, 0.19 µM	–	119	–
RPMI 5 mM glucose + 10% FBS, 0.569 µM	–	108	–
RPMI 5 mM glucose + 10% FBS, 1.71 µM	–	120	–
RPMI 5 mM glucose + 10% FBS, 5.12 µM	–	114	–
RPMI 5 mM glucose + 10% FBS, 15.4 µM	–	124	–
RPMI 5 mM glucose + 10% FBS, 46.1 µM	–	111	–
RPMI 5 mM glucose + 10% dialyzed FBS, 0.000781 µM	115	115	–
RPMI 5 mM glucose + 10% dialyzed FBS, 0.00234 µM	120	117	–
RPMI 5 mM glucose + 10% dialyzed FBS, 0.00702 µM	115	106	–
RPMI 5 mM glucose + 10% dialyzed FBS, 0.0211 µM	113	118	–
RPMI 5 mM glucose + 10% dialyzed FBS, 0.0632 µM	125	113	–
RPMI 5 mM glucose + 10% dialyzed FBS, 0.19 µM	119	95.5	–
RPMI 5 mM glucose + 10% dialyzed FBS, 0.569 µM	124	106	–
RPMI 5 mM glucose + 10% dialyzed FBS, 1.71 µM	120	112	–
RPMI 5 mM glucose + 10% dialyzed FBS, 5.12 µM	108	113	–
RPMI 5 mM glucose + 10% dialyzed FBS, 15.4 µM	101	117	–
RPMI 5 mM glucose + 10% dialyzed FBS, 46.1 µM	96.6	116	–

OC[C@H]1O[C@H](C[C@@H]1O)N2/C=C(C(=O)NC2=O)/C(F)(F)F
AUC of viability dose-response curve
Conditions	[1]	[2]	[3]
HPLM + 10% dialyzed FBS	356	317	317
RPMI 5 mM glucose + 10% FBS	449	407	375
RPMI 5 mM glucose + 10% dialyzed FBS	391	350	371

cell viability [%]
Conditions	[4]	[5]	[6]
HPLM + 10% dialyzed FBS, 0.000781 µM	128	77.4	120
HPLM + 10% dialyzed FBS, 0.00234 µM	120	95.7	116
HPLM + 10% dialyzed FBS, 0.00702 µM	106	90.9	119
HPLM + 10% dialyzed FBS, 0.0211 µM	116	89.9	110
HPLM + 10% dialyzed FBS, 0.0632 µM	120	92.3	117
HPLM + 10% dialyzed FBS, 0.19 µM	114	88.7	98
HPLM + 10% dialyzed FBS, 0.569 µM	82.8	72.5	75.9
HPLM + 10% dialyzed FBS, 1.71 µM	58.8	50.2	52.9
HPLM + 10% dialyzed FBS, 5.12 µM	69.7	26.2	17.4
HPLM + 10% dialyzed FBS, 15.4 µM	45	20.5	12.5
HPLM + 10% dialyzed FBS, 46.1 µM	26.5	11.8	6.49
RPMI 5 mM glucose + 10% FBS, 0.000781 µM	99.8	101	126
RPMI 5 mM glucose + 10% FBS, 0.00234 µM	117	104	113
RPMI 5 mM glucose + 10% FBS, 0.00702 µM	116	116	118
RPMI 5 mM glucose + 10% FBS, 0.0211 µM	116	101	114
RPMI 5 mM glucose + 10% FBS, 0.0632 µM	114	109	123
RPMI 5 mM glucose + 10% FBS, 0.19 µM	107	123	121
RPMI 5 mM glucose + 10% FBS, 0.569 µM	118	111	112
RPMI 5 mM glucose + 10% FBS, 1.71 µM	115	103	107
RPMI 5 mM glucose + 10% FBS, 5.12 µM	107	79.5	38.6
RPMI 5 mM glucose + 10% FBS, 15.4 µM	86.9	30.4	15.7
RPMI 5 mM glucose + 10% FBS, 46.1 µM	42.9	15.5	8.41
RPMI 5 mM glucose + 10% dialyzed FBS, 0.000781 µM	115	100	107
RPMI 5 mM glucose + 10% dialyzed FBS, 0.00234 µM	110	124	114
RPMI 5 mM glucose + 10% dialyzed FBS, 0.00702 µM	121	111	114
RPMI 5 mM glucose + 10% dialyzed FBS, 0.0211 µM	113	115	113
RPMI 5 mM glucose + 10% dialyzed FBS, 0.0632 µM	103	98.3	105
RPMI 5 mM glucose + 10% dialyzed FBS, 0.19 µM	113	117	107
RPMI 5 mM glucose + 10% dialyzed FBS, 0.569 µM	97.4	93.9	89.6
RPMI 5 mM glucose + 10% dialyzed FBS, 1.71 µM	96	66.8	93.3
RPMI 5 mM glucose + 10% dialyzed FBS, 5.12 µM	67.7	22.6	23.1
RPMI 5 mM glucose + 10% dialyzed FBS, 15.4 µM	31.3	15.5	16.8
RPMI 5 mM glucose + 10% dialyzed FBS, 46.1 µM	18.3	10.3	11.1

Cc1ccc(Nc2cc(-c3cccc(N4C(=O)c5ccccc5C4=O)c3)ncn2)cc1N[S+](C)(=O)[O-]
AUC of viability dose-response curve
Conditions	[1]	[2]	[3]
HPLM + 10% dialyzed FBS	461	468	466
RPMI 5 mM glucose + 10% FBS	473	463	465
RPMI 5 mM glucose + 10% dialyzed FBS	469	468	474

cell viability [%]
Conditions	HPLM + 10% dialyzed FBS	RPMI 5 mM glucose + 10% FBS	RPMI 5 mM glucose + 10% dialyzed FBS
[4], 0.000781 µM	107	–	–
[4], 0.00234 µM	113	–	–
[4], 0.00702 µM	156	–	–
[4], 0.0211 µM	123	–	–
[4], 0.0632 µM	127	–	–
[4], 0.19 µM	149	–	–
[4], 0.569 µM	128	–	–
[4], 1.71 µM	140	–	–
[4], 5.12 µM	153	–	–
[4], 15.4 µM	132	–	–
[4], 46.1 µM	107	–	–
[5], 0.000781 µM	102	123	122
[5], 0.00234 µM	97.9	95.8	117
[5], 0.00702 µM	131	137	119
[5], 0.0211 µM	117	138	119
[5], 0.0632 µM	126	128	135
[5], 0.19 µM	123	132	115
[5], 0.569 µM	117	142	127
[5], 1.71 µM	137	166	154
[5], 5.12 µM	123	133	136
[5], 15.4 µM	123	132	142
[5], 46.1 µM	76.2	105	77.7

NCCCC(N)(C(=O)O)C(F)F (centres undefined)
AUC of viability dose-response curve
Conditions	[1]	[2]	[3]
HPLM + 10% dialyzed FBS	454	446	462
RPMI 5 mM glucose + 10% FBS	443	460	448
RPMI 5 mM glucose + 10% dialyzed FBS	461	461	449

cell viability [%]
Conditions	HPLM + 10% dialyzed FBS	RPMI 5 mM glucose + 10% FBS	RPMI 5 mM glucose + 10% dialyzed FBS
[4], 0.000781 µM	–	123	121
[4], 0.00234 µM	–	137	112
[4], 0.00702 µM	–	122	115
[4], 0.0211 µM	–	125	113
[4], 0.0632 µM	–	132	126
[4], 0.19 µM	–	111	112
[4], 0.569 µM	–	125	108
[4], 1.71 µM	–	120	125
[4], 5.12 µM	–	109	100
[4], 15.4 µM	–	107	111
[4], 46.1 µM	–	95.1	90.1
[6], 0.000781 µM	116	123	114
[6], 0.00234 µM	116	125	122
[6], 0.00702 µM	113	123	113
[6], 0.0211 µM	117	121	118
[6], 0.0632 µM	118	114	113
[6], 0.19 µM	110	122	109
[6], 0.569 µM	113	113	110
[6], 1.71 µM	112	113	105
[6], 5.12 µM	108	115	105
[6], 15.4 µM	101	107	105
[6], 46.1 µM	98.4	109	100

Source: the supplement of paper PMC11451515
